Legend:
Carbonic anhydrase 4 = Carbonic anhydrase 4 (Homo sapiens, UniProt P22748); assay: Inhibition of recombinant human carbonic anhydrase 4 preincubated with enzyme for 15 mins by phenol red dye based stopped flow CO2 hydration assay
Carbonic anhydrase 9 = Carbonic anhydrase 9 (Homo sapiens, UniProt Q16790); assay: Inhibition of recombinant human carbonic anhydrase 9 preincubated with enzyme for 15 mins by phenol red dye based stopped flow CO2 hydration assay
Carbonic anhydrase 7 = Carbonic anhydrase 7 (Homo sapiens, UniProt P43166); assay: Inhibition of recombinant human carbonic anhydrase 7 preincubated with enzyme for 15 mins by phenol red dye based stopped flow CO2 hydration assay
Carbonic anhydrase 2 = Carbonic anhydrase 2 (Homo sapiens, UniProt P00918); assay: Inhibition of recombinant human carbonic anhydrase 2 preincubated with enzyme for 15 mins by phenol red dye based stopped flow CO2 hydration assay
Carbonic anhydrase 1 = Carbonic anhydrase 1 (Homo sapiens, UniProt P00915); assay: Inhibition of recombinant human carbonic anhydrase 1 preincubated with enzyme for 15 mins by phenol red dye based stopped flow CO2 hydration assay
Carbonic anhydrase 1, sequence (P00915 whole entry): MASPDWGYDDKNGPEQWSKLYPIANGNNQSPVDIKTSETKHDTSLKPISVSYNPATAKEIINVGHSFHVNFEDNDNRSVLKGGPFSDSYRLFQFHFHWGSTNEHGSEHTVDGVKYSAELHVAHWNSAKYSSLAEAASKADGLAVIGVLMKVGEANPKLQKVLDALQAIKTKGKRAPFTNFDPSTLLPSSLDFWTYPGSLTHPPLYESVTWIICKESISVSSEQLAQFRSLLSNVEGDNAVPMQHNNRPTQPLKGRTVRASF

Carbonic anhydrase 4, sequence (P22748 whole entry): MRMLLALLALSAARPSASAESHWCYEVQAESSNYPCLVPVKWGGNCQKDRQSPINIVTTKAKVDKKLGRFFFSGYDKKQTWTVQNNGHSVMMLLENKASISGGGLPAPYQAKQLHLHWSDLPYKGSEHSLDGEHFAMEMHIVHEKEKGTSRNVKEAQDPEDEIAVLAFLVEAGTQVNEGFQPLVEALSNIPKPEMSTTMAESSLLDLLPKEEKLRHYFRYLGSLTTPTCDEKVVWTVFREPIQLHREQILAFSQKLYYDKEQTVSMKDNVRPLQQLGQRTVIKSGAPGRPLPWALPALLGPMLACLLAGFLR
Carbonic anhydrase 7, sequence (P43166 whole entry): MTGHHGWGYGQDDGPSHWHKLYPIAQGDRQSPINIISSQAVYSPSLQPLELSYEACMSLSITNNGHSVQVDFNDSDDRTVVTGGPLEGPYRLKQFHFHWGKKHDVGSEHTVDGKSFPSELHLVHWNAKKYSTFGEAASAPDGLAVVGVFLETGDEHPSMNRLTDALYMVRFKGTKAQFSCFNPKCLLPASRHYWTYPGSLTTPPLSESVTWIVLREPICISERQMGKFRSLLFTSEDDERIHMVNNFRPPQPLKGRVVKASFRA

Row | Compound | Ki (Carbonic anhydrase 4) | Ki (Carbonic anhydrase 9) | Ki (Carbonic anhydrase 7) | Ki (Carbonic anhydrase 2) | Ki (Carbonic anhydrase 1)
1 | O=C1c2ccc(O)cc2C(=O)C1(O)O | > 100 µM | 27.8 µM | – | – | –
2 | O=C1c2cccc(F)c2C(=O)C1(O)O | > 100 µM | 44.3 µM | – | – | –
3 | O=C1c2cc(Br)cc(Br)c2C(=O)C1(O)O | > 100 µM | 2.81 µM | – | – | –
4 | O=C1c2ccc(Br)cc2C(=O)C1(O)O | 71.3 µM | 2.85 µM | – | – | –
5 | COc1ccc(C(C)C)c2c1C(=O)C(O)(O)C2=O | > 100 µM | 54.3 µM | – | – | –
6 | COc1ccc(OC)c2c1C(=O)C(O)(O)C2=O | > 100 µM | 68.2 µM | – | – | –
7 | O=C1c2cccc(O)c2C(=O)C1(O)O | > 100 µM | 17.1 µM | – | – | –
8 | O=C1c2cccc([N+](=O)[O-])c2C(=O)C1(O)O | > 100 µM | 31 µM | – | – | –
9 | O=C1c2cccc(Br)c2C(=O)C1(O)O | > 100 µM | 61.2 µM | – | – | –
10 | CC(C)Oc1cccc2c1C(=O)C(O)(O)C2=O | > 100 µM | 1.34 µM | – | – | –
11 | O=C1c2ccccc2C(=O)C1(O)O | > 100 µM | 2.37 µM | 0.074 µM | 22.7 µM | 5.38 µM
12 | Cc1ccc2c(c1)C(=O)C(O)(O)C2=O | 84.6 µM | 16.8 µM | – | – | –
13 | COc1cc2c(cc1OC)C(=O)C(O)(O)C2=O | > 100 µM | 30.4 µM | – | – | –
14 | COc1ccc(CNC(=O)CCl)c2c1C(=O)C(O)(O)C2=O | > 100 µM | 8.41 µM | – | – | –
15 | O=C1c2ccc(F)cc2C(=O)C1(O)O | > 100 µM | 38.7 µM | – | – | –
16 | O=C1c2ccc([N+](=O)[O-])cc2C(=O)C1(O)O | > 100 µM | 29.6 µM | – | – | –
17 | O=C1c2c(Br)c(Br)c(Br)c(Br)c2C(=O)C1(O)O | 39.7 µM | 46.7 µM | – | – | –
18 | COc1cccc2c1C(=O)C(O)(O)C2=O | > 100 µM | 34.1 µM | – | – | –
19 | Cc1cccc2c1C(=O)C(O)(O)C2=O | > 100 µM | 51.4 µM | – | – | –
20 | COc1ccc2c(c1)C(=O)C(O)(O)C2=O | 74.3 µM | 13.4 µM | – | – | –
